These compounds were tested on HCT116 colorectal cancer cells (assay: Cisplatin sensitization assay (96 h cell viability MTS)). Conditions: compound and Cisplatin added simultaneously, Cisplatin sensitization value.
Assay type: cell-based
In short: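 Compound and cisplatin added together as a full matrix of 2-fold serial dilutions from a top final concentration of 10 μM; cells incubated 96 h at 37° C, 5% CO2. Viability then read by MTS after 1 h further incubation; sensitization value reported in μM bins.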
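Also: Test-compound concentration that lowers the Cisplatin IC50 by a set fold.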

| Compound | Cisplatin Sensitization Assay |
| --- | --- |
| Nc1nn2cc(F)cnc2c1C(=O)Nc1cncc(F)c1N1CCC(C(=O)N2CCC(N3CCCC3)CC2)CC1 [I-G-59, 2-amino-6-fluoro-N-(5-fluoro-4-(4-(4-(pyrrolidin-1-yl)piperidine-1-carbonyl)piperidin-1-yl)pyridin-3-yl)pyrazolo[1,5-a]pyrimidine-3-carboxamide] | +++ (Cisplatin sensitization value of <0.02 μM) |
| Nc1nn2cc(F)cnc2c1C(=O)Nc1cncc(F)c1N1CCC(C(=O)N2CCC(N3CCCCC3)CC2)CC1 [I-G-60, N-(4-(4-([1,4′-bipiperidine]-1′-carbonyl)piperidin-1-yl)-5-fluoropyridin-3-yl)-2-amino-6-fluoropyrazolo[1,5-a]pyrimidine-3-carboxamide] | +++ (Cisplatin sensitization value of <0.02 μM) |
| C[C@H]1CN(C(=O)C2CCN(c3c(F)cncc3NC(=O)c3c(N)nn4cc(F)cnc34)CC2)CCN1 [I-G-61, (S)-2-amino-6-fluoro-N-(5-fluoro-4-(4-(3-methylpiperazine-1-carbonyl)piperidin-1-yl)pyridin-3-yl)pyrazolo[1,5-a]pyrimidine-3-carboxamide] | +++ (Cisplatin sensitization value of <0.02 μM) |
| Nc1nn2cc(F)cnc2c1C(=O)Nc1cncc(F)c1N1CCC(C(=O)N2CCNC3CC32)CC1 (centres unmarked) [I-G-62, N-(4-(4-(2,5-diazabicyclo[4.1.0]heptane-2-carbonyl)piperidin-1-yl)-5-fluoropyridin-3-yl)-2-amino-6-fluoropyrazolo[1,5-a]pyrimidine-3-carboxamide] | +++ (Cisplatin sensitization value of <0.02 μM) |
| CC1(O)CN(C(=O)C2CCN(c3c(F)cncc3NC(=O)c3c(N)nn4cc(F)cnc34)CC2)C1 [I-G-63, 2-amino-6-fluoro-N-(5-fluoro-4-(4-(3-hydroxy-3-methylazetidine-1-carbonyl)piperidin-1-yl)pyridin-3-yl)pyrazolo[1,5-a]pyrimidine-3-carboxamide] | +++ (Cisplatin sensitization value of <0.02 μM) |
| Nc1nn2cc(F)cnc2c1C(=O)Nc1cncc(F)c1N1CCC(C(=O)N2CCC(N3CCCCC3)C2)CC1 (centres unmarked) [I-G-64, 2-amino-6-fluoro-N-(5-fluoro-4-(4-(3-(piperidin-1-yl)pyrrolidine-1-carbonyl)piperidin-1-yl)pyridin-3-yl)pyrazolo[1,5-a]pyrimidine-3-carboxamide] | +++ (Cisplatin sensitization value of <0.02 μM) |
| CN1CCN(C(=O)C2CCN(c3c(F)cncc3NC(=O)c3c(N)nn4cc(F)cnc34)CC2)C2CC21 (centres unmarked) [I-G-65, 2-amino-6-fluoro-N-(5-fluoro-4-(4-(5-methyl-2,5-diazabicyclo[4.1.0]heptane-2-carbonyl)piperidin-1-yl)pyridin-3-yl)pyrazolo[1,5-a]pyrimidine-3-carboxamide] | +++ (Cisplatin sensitization value of <0.02 μM) |
| Nc1nn2cc(F)cnc2c1C(=O)Nc1cncc(Cl)c1N1CCC(C(=O)N2CCN3CCC2CC3)CC1 [I-G-66, N-(4-(4-(1,4-diazabicyclo[3.2.2]nonane-4-carbonyl)piperidin-1-yl)-5-chloropyridin-3-yl)-2-amino-6-fluoropyrazolo[1,5-a]pyrimidine-3-carboxamide] | +++ (Cisplatin sensitization value of <0.02 μM) |
| Nc1nn2cc(F)cnc2c1C(=O)Nc1cncc(F)c1N1CCC(C(=O)N2CC(F)C2)CC1 [I-G-67, 2-amino-6-fluoro-N-(5-fluoro-4-(4-(3-fluoroazetidine-1-carbonyl)piperidin-1-yl)pyridin-3-yl)pyrazolo[1,5-a]pyrimidine-3-carboxamide] | +++ (Cisplatin sensitization value of <0.02 μM) |
| Nc1nn2cc(F)cnc2c1C(=O)Nc1cncc(F)c1N1CCC(C(=O)N2CCC(N3CCC3)CC2)CC1 [I-G-68, 2-amino-N-(4-(4-(4-(azetidin-1-yl)piperidine-1-carbonyl)piperidin-1-yl)-5-fluoropyridin-3-yl)-6-fluoropyrazolo[1,5-a]pyrimidine-3-carboxamide] | +++ (Cisplatin sensitization value of <0.02 μM) |
| Nc1nn2cc(F)cnc2c1C(=O)Nc1cncc(Cl)c1N1CCC(C(=O)N2CCN3CCC2C3)CC1 (centres unmarked) [I-G-69, N-(4-(4-(1,4-diazabicyclo[3.2.1]octane-4-carbonyl)piperidin-1-yl)-5-chloropyridin-3-yl)-2-amino-6-fluoropyrazolo[1,5-a]pyrimidine-3-carboxamide] | +++ (Cisplatin sensitization value of <0.02 μM) |
| Nc1nn2cc(F)cnc2c1C(=O)Nc1cncc(F)c1N1CCC(C(=O)N2CC(F)(F)C2)CC1 [I-G-73, 2-amino-N-(4-(4-(3,3-difluoroazetidine-1-carbonyl)piperidin-1-yl)-5-fluoropyridin-3-yl)-6-fluoropyrazolo[1,5-a]pyrimidine-3-carboxamide] | +++ (Cisplatin sensitization value of <0.02 μM) |
| COC1(C)CN(C(=O)C2CCN(c3c(F)cncc3NC(=O)c3c(N)nn4cc(F)cnc34)CC2)C1 [I-G-75, 2-amino-6-fluoro-N-(5-fluoro-4-(4-(3-methoxy-3-methylazetidine-1-carbonyl)piperidin-1-yl)pyridin-3-yl)pyrazolo[1,5-a]pyrimidine-3-carboxamide] | +++ (Cisplatin sensitization value of <0.02 μM) |
| N#CC1CN(C(=O)C2CCN(c3c(F)cncc3NC(=O)c3c(N)nn4cc(F)cnc34)CC2)C1 [I-G-76, 2-amino-N-(4-(4-(3-cyanoazetidine-1-carbonyl)piperidin-1-yl)-5-fluoropyridin-3-yl)-6-fluoropyrazolo[1,5-a]pyrimidine-3-carboxamide] | +++ (Cisplatin sensitization value of <0.02 μM) |
| Nc1nn2cc(F)cnc2c1C(=O)Nc1cnccc1N1CCC(C(=O)N2CCC2)CC1 [I-G-77, 2-amino-N-(4-(4-(azetidine-1-carbonyl)piperidin-1-yl)pyridin-3-yl)-6-fluoropyrazolo[1,5-a]pyrimidine-3-carboxamide] | +++ (Cisplatin sensitization value of <0.02 μM) |
| COC1CN(C(=O)C2CCN(c3ccncc3NC(=O)c3c(N)nn4cc(F)cnc34)CC2)C1 [I-G-78, 2-amino-6-fluoro-N-(4-(4-(3-methoxyazetidine-1-carbonyl)piperidin-1-yl)pyridin-3-yl)pyrazolo[1,5-a]pyrimidine-3-carboxamide] | +++ (Cisplatin sensitization value of <0.02 μM) |
| COC1(C)CN(C(=O)C2CCN(c3ccncc3NC(=O)c3c(N)nn4cc(F)cnc34)CC2)C1 [I-G-79, 2-amino-6-fluoro-N-(4-(4-(3-methoxy-3-methylazetidine-1-carbonyl)piperidin-1-yl)pyridin-3-yl)pyrazolo[1,5-a]pyrimidine-3-carboxamide] | +++ (Cisplatin sensitization value of <0.02 μM) |
| Nc1nn2cc(F)cnc2c1C(=O)Nc1cnccc1N1CCC(C(=O)N2CC(F)(F)C2)CC1 [I-G-80, 2-amino-N-(4-(4-(3,3-difluoroazetidine-1-carbonyl)piperidin-1-yl)pyridin-3-yl)-6-fluoropyrazolo[1,5-a]pyrimidine-3-carboxamide] | +++ (Cisplatin sensitization value of <0.02 μM) |
| N#CC1CN(C(=O)C2CCN(c3ccncc3NC(=O)c3c(N)nn4cc(F)cnc34)CC2)C1 [I-G-81, 2-amino-N-(4-(4-(3-cyanoazetidine-1-carbonyl)piperidin-1-yl)pyridin-3-yl)-6-fluoropyrazolo[1,5-a]pyrimidine-3-carboxamide] | +++ (Cisplatin sensitization value of <0.02 μM) |
| Nc1nn2cc(F)cnc2c1C(=O)Nc1cnccc1N1CCC(C(=O)N2CC(F)C2)CC1 [I-G-82, 2-amino-6-fluoro-N-(4-(4-(3-fluoroazetidine-1-carbonyl)piperidin-1-yl)pyridin-3-yl)pyrazolo[1,5-a]pyrimidine-3-carboxamide] | +++ (Cisplatin sensitization value of <0.02 μM) |
| Nc1nn2cc(F)cnc2c1C(=O)Nc1cnccc1N1CCC(C(=O)N2CCCC2)CC1 [I-G-83, 2-amino-6-fluoro-N-(4-(4-(pyrrolidine-1-carbonyl)piperidin-1-yl)pyridin-3-yl)pyrazolo[1,5-a]pyrimidine-3-carboxamide] | +++ (Cisplatin sensitization value of <0.02 μM) |
| Nc1nn2cc(F)cnc2c1C(=O)Nc1cnccc1N1CCC(C(=O)N2CCC3(COC3)C2)CC1 [I-G-84, N-(4-(4-(2-oxa-6-azaspiro[3.4]octane-6-carbonyl)piperidin-1-yl)pyridin-3-yl)-2-amino-6-fluoropyrazolo[1,5-a]pyrimidine-3-carboxamide] | +++ (Cisplatin sensitization value of <0.02 μM) |
| Nc1nn2cc(F)cnc2c1C(=O)Nc1cnccc1N1CCC(C(=O)N2CCOCC2)CC1 [I-G-85, 2-amino-6-fluoro-N-(4-(4-(morpholine-4-carbonyl)piperidin-1-yl)pyridin-3-yl)pyrazolo[1,5-a]pyrimidine-3-carboxamide] | +++ (Cisplatin sensitization value of <0.02 μM) |
| CS(=O)(=O)C1CN(C(=O)C2CCN(c3c(F)cncc3NC(=O)c3c(N)nn4cc(F)cnc34)CC2)C1 [I-G-86, 2-amino-6-fluoro-N-(5-fluoro-4-(4-(3-(methylsulfonyl)azetidine-1-carbonyl)piperidin-1-yl)pyridin-3-yl)pyrazolo[1,5-a]pyrimidine-3-carboxamide] | +++ (Cisplatin sensitization value of <0.02 μM) |
| Nc1nn2cc(Cl)cnc2c1C(=O)Nc1cncc(F)c1N1CCC(C(=O)N2CCN3CCC2CC3)CC1 [I-G-87, N-(4-(4-(1,4-diazabicyclo[3.2.2]nonane-4-carbonyl)piperidin-1-yl)-5-fluoropyridin-3-yl)-2-amino-6-chloropyrazolo[1,5-a]pyrimidine-3-carboxamide] | +++ (Cisplatin sensitization value of <0.02 μM) |
| Nc1nn2cc(F)cnc2c1C(=O)Nc1cnccc1N1CCC(C(=O)N2CC3(COC3)C2)CC1 [I-G-88, N-(4-(4-(2-oxa-6-azaspiro[3.3]heptane-6-carbonyl)piperidin-1-yl)pyridin-3-yl)-2-amino-6-fluoropyrazolo[1,5-a]pyrimidine-3-carboxamide] | +++ (Cisplatin sensitization value of <0.02 μM) |

Reference: patent publication US11370798B2 (Vertex Pharmaceuticals Incorporated, priority 2012, dated 2022)
